According to PubChem BioAssay (NCI):
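Following 48 hours of exposure in 96-well plates, responses at five concentrations were used to interpolate endpoints linearly. TGI marks complete inhibition of growth.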

Experiments:
Test in all cases: DTP human tumour cell line panel, 48 h
CAKI-1 renal = test system: CAKI-1 renal
PC-3 prostate = test system: PC-3 prostate
HT29 colon = test system: HT29 colon
UACC-257 melanoma = test system: UACC-257 melanoma
COLO 205 colon = test system: COLO 205 colon
HCT-15 colon = test system: HCT-15 colon
HCT-116 colon = test system: HCT-116 colon
A549 NSCLC = test system: A549 NSCLC
SK-MEL-5 melanoma = test system: SK-MEL-5 melanoma
K-562 leukemia = test system: K-562 leukemia

Structure (SMILES) | TGI (CAKI-1 renal) [µM] | TGI (PC-3 prostate) [µM] | TGI (HT29 colon) [µM] | TGI (UACC-257 melanoma) [µM] | TGI (COLO 205 colon) [µM] | TGI (HCT-15 colon) [µM] | TGI (HCT-116 colon) [µM] | TGI (A549 NSCLC) [µM] | TGI (SK-MEL-5 melanoma) [µM] | TGI (K-562 leukemia) [µM]
C/C=C1/CN2[C@@H](C3=C[C@@H]4[C@@H]5N(C3=O)c3ccccc3[C@@]53CCN5C/C(=C/C)[C@@H]4C[C@H]53)C[C@@]34c5ccccc5N5C(=O)CC=C([C@H]1C[C@H]23)[C@H]54 | 15.7 | 9.72 | 8.08 | 2.9 | 7.54 | 10.3 | 9.07 | 15.3 | 8.93 | 50
COC(=O)c1ccc(CCC2=CC(=O)C(Br)=CC2=O)cc1 | 26.4 | 30.9 | 30.9 | 29 | 18.7 | 27.6 | 30.3 | 36.9 | 24.6 | 4.84
C=C(C)[C@@H]1CC[C@]2(CO)CC[C@]3(C)[C@H](CC[C@@H]4[C@@]5(C)CC[C@H](O)C(C)(C)[C@@H]5CC[C@]43C)[C@@H]12 | 29 | 84.3 | 48.6 | 54.9 |  | > 100 | > 100 | 26.9 | 57.9 | > 100
CC(C)(C)OC(=O)NC1CCCC1C(O)(C1=CCCC1)C1=CCCC1 (centres undefined) |  | > 100 | > 100 | > 100 | > 100 | > 100 | > 100 | > 100 | > 100 | 
Cc1ccc2ccc(=O)oc2c1 | > 100 | > 100 | > 100 | > 100 | > 100 |  | > 100 | > 100 | > 100 | > 100
Cc1ccc(S(=O)(=O)NC(=O)NC(Cc2ccccc2)C(=O)O)cc1 (centres undefined) |  | > 100 | > 100 | > 100 | > 100 | > 100 | > 100 | > 100 | > 100 | > 100
CCOC(O)C(F)(F)F (centres undefined) |  | > 100 | > 100 | > 100 | > 100 | > 100 | > 100 | > 100 | > 100 | > 100
CC(=O)Nc1ccc(N2C(=O)CS(=O)(=O)C2c2cccc(Oc3ccccc3)c2)cc1 (centres undefined) |  | 42.8 | 37.7 | 33.8 | 35.7 | 39.5 | 35.2 | 48.8 | 28.7 | 55
N#CN=C1c2ccccc2C(=NC#N)c2cc(CO)ccc21 | > 100 | > 100 | > 100 | > 100 |  | > 100 | > 100 | > 100 | > 100 | 80.7
O=C(Nc1ccc(Cl)cc1)c1cccc([N+](=O)[O-])c1O | 17.1 |  | > 73.1 | 8.13 | 10.5 | > 88.3 | 20 | > 100 | 4.86 | 24.2
O=c1[nH]c2nccnc2c2c([N+](=O)[O-])cccc12 |  | > 100 | > 100 |  | > 100 | > 100 | > 100 | > 100 | > 100 | > 100
COC(=O)C1=C(O)C(C(=O)OC)[C@]2(O)[C@H](C(=O)OC)[C@H]1C[C@@H](c1cccc(OC)c1)[C@H]2C(=O)OC (some centres undefined) | 73.3 |  | > 100 | > 100 | > 100 | 86.3 | 65.6 | 75.3 | > 100 | > 100
O=S(=O)(O)c1ccc2c(N=Nc3ccccc3)c(O)c(S(=O)(=O)O)cc2c1 | > 100 | > 100 |  | > 100 | > 100 | > 100 | > 100 | > 100 | > 100 | > 100
CC1(C)C2CCC1(C)C(N/C(=C(/C(Cl)=C(Cl)Cl)[N+](=O)[O-])n1nnc3ccccc31)C2 (centres undefined) | 37 | 48.3 | > 100 | > 100 | 34.4 | 93.4 | > 100 | > 100 |  | 
CSc1nc2c(c(=O)n1C)N=C(c1ccc(Cl)cc1)CC(c1ccccc1)N2 (centres undefined) | 46.4 | > 100 | 31.6 | 54.8 | 39.2 |  | > 100 | 73.7 | 33.7 | 53.2
COc1cc2c(cc1OC)C1=Cc3ccc(OC)c(OC)c3C(C#N)N1CC2 (centres undefined) | > 100 | > 100 | > 100 | 47.4 | 43.8 | > 100 | > 100 | > 100 | 38.6 | 
Cc1c(C)c2c(c(N)c1C#N)C(=O)N(OS(=O)(=O)c1ccccc1)C2=O | 51 | > 100 |  | 68 | 45.3 | 46 | 68.1 | 32.1 | > 100 | 43.4

Structure (SMILES) | TGI (CAKI-1 renal) [µM] | TGI (PC-3 prostate) [µM] | TGI (HT29 colon) [µM] | TGI (UACC-257 melanoma) [µM] | TGI (COLO 205 colon) [µM] | TGI (HCT-15 colon) [µM] | TGI (HCT-116 colon) [µM] | TGI (A549 NSCLC) [µM] | TGI (SK-MEL-5 melanoma) [µM] | TGI (K-562 leukemia) [µM]
O=c1[nH]nc(Cc2ccccc2)n1/N=C/c1ccc([N+](=O)[O-])o1 | 25 | 20.9 | 18.9 | 19.7 | > 100 | > 100 | 6.13 | > 100 |  | > 100
O=C1C=C(N2CCCC2)C(=O)c2c(O)ccc(O)c21 |  | > 10 | > 10 | > 10 |  | > 10 |  | > 10 | > 10 | > 10
Nc1nc2cc(CNc3ccc(C(=O)O)cc3)ccc2nc1-c1ccccc1 |  | > 100 | > 100 | > 100 | > 100 | > 100 | > 100 | > 100 | > 100 | > 100
OCc1c2c(cc3c1CC1(C3)Cc3cc4c(c(CO)c3C1)CCC4)CCC2 |  | 39.9 | 32.4 | 23.8 | 42.4 | 34.6 | 26.4 | 30.9 | 17.9 | 21.9
CN(C)c1ccc(/C=N/n2c(-c3ccccc3)nc3ccccc3c2=O)cc1 | > 100 | > 100 | > 100 | > 100 | > 100 | > 100 | > 100 | > 100 | > 100 | 
Cc1c(NC(=S)N/N=C\C(=N/NC(=S)Nc2c(C)n(C)n(-c3ccccc3)c2=O)c2ccccc2)c(=O)n(-c2ccccc2)n1C | > 100 | > 100 | > 100 | > 100 | > 100 | > 100 | > 100 | > 100 | > 100 | 
O=c1c(/C=C/c2c(O)ccc3ccccc23)nnc2sc(-c3cccc([N+](=O)[O-])c3)nn12 | > 100 | 46.5 | > 100 | 51 | > 100 | > 100 | 32.2 |  |  | > 100
CC(=O)N1CC(C)(C)c2c1cc(C)c(O)c2C |  | > 100 | > 100 | > 100 | > 100 | > 100 | > 100 | > 100 | > 100 | > 100
O=c1[nH]c(=S)c2cc3c(=S)[nH]c(=O)n(CCC(c4ccccc4)(c4ccccc4)c4ccccc4)c3nc2n1CCC(c1ccccc1)(c1ccccc1)c1ccccc1 | > 100 | > 100 |  | > 100 | > 100 | > 100 | > 100 | > 100 | > 100 | > 100
c1nncn1C12C3C4C5C3C1C5C42 (centres undefined) |  | > 100 | > 100 | > 100 | > 100 | > 100 | > 100 | > 100 | > 100 | > 100
CC(C)=NNc1cnnc2ccc([N+](=O)[O-])cc12 | > 100 | > 100 | > 100 | > 100 | > 100 | > 100 | > 100 | > 100 | > 100 | 
CCn1nc(-c2ccccc2)c2c1N(C)c1ccccc1-n1c(-c3ccccc3)nnc1-2 |  | 27.7 |  |  | 48.5 | 23.4 | 26.3 | 29.9 | 21.2 | > 100
CN1c2ccccc2C(=O)NC12CCN(Cc1ccccc1)CC2 |  |  | > 100 | > 100 | > 100 | > 100 | > 100 | > 100 | > 100 | 
COC(=O)c1c(O)ccc2c1c1c(n2Cc2ccc(OC)cc2)C(=O)c2ccccc2C1=O | 86.4 | 21.1 | 8.55 | 94.3 | 3.3 | 16.7 | 19.7 | 21.6 |  | 20
CCOC(=O)c1[nH]cnc1/N=N/N(C)N | 61.2 | > 100 | > 100 | > 100 | > 100 | > 100 | > 100 | > 100 | > 100 | 
CC1(C)CC(=O)C2=C(C1)NC(SCC(=O)O)=C(C#N)C2c1ccc(Br)cc1 (centres undefined) | > 100 | > 100 | > 100 | > 100 | > 100 | > 100 | > 100 | > 100 | > 100 | 
